Entries after “also recorded” stand apart in the source; their conditions may differ.
Tests used:
Assay type in all cases: cell-based, human
naive hPSC aggregates = experiment: Induction of blastoids and trophospheres from naive hPSC aggregates in microwell arrays (yield counted by morphology); settings: for effect on blastoid formation / yield of blastoids: naive hPSC aggregates in PALY medium complemented with the molecule every day, 0 to 96 hours; for morphology of hPSC aggregates upon stimulation: stimulation of hPSC aggregates with LPA or NAEPA; for formation of blastoids versus trophospheres: 3 μM SC144 in PALLY medium for 4 days (0 to 96 hours)
Method: Naive hPSCs or primed hPSCs cultures were treated with Accutase (Biozym, B423201) at 37° C. for 5 min, followed by gentle mechanical dissociation with a pipette. After centrifugation, the cell pellet was resuspended in PXGL medium, supplemented with Y-27632 (10 μM, MedChemExpress, HY-10583). To exclude MEF, the cell suspension was transferred onto gelatin coated plates and incubated at 37° C. for 70 min. After MEF exclusion, the cell number was determined using a Countess™ automated cell counter (Thermo Fisher Scientific) and Trypan Blue staining to assess cell viability. The cells were then resuspended in N2B27 media containing 10 μM Y-27632 (aggregation medium) and 3.0×10^4 cells were seeded onto a microwell array included into a well of a 96-well plate. The cells were allowed to form aggregates inside the microwell for a period ranging from 0 to 24 hours depending on the cell lines and based on their propensity for aggregation. Subsequently, the aggregation medium was replaced with PALLY medium-N2B27 supplemented with PD0325901 (1 μM), A 83-01 (1 μM, MedChemExpress, HY-10432), hLIF (10 ng/ml), 1-Oleoyl lysophosphatidic acid sodium salt (LPA) (500 nM, Tocris, 3854) and Y27632 (10 μM). The PALLY medium was refreshed every 24 hours. After 48 hours, the PALLY medium was replaced with N2B27 medium containing 500 nM LPA and 10 μM Y-27632. At 96 hours, a blastoid is defined based on morphological similarity to B6 staged human blastocyst, as a structure composed of a monolayered cyst with an overall diameter of 150-250 μm comprising one inner cell cluster. We also verified that, beyond the morphology, blastoids form analogs of the three blastocyst cell lineages in the sequential and timely manner of blastocyst development. […] The effect of LPA, NAEPA (Sigma-Aldrich, N0912) and Verteporfin (Selleck Chemicals Llc, S1786) on the yield of blastoid formation was assessed by culturing naive hPSC aggregates in PALY medium complemented with molecules added every day from 0 to 96 hours. The Verteporfin treatment was executed without exposure to the light. The effect of the aPKC inhibitor CRT0103390 (Gift from the laboratory of Kathy Niakan) was assessed by culturing naive hPSC aggregates in PALLY medium complemented with 2 μM CRT0103390 every day from 0 to 96 hours. The formation of trophospheres was induced by culturing naive hPSC aggregates in PALLY medium complemented with 2 μM XMU-MP-1 (Med Chem Express, HY-100526) or 3 μM SC-144 (Axon, 2324) every day from 0 to 96 hours. The BSA concentration was titrated within the range of 0-0.3% for individual cell lines used for the formation of the blastoids and trophospheres.
The phase contrast images were acquired using Thermo Fisher scientific EVOS cell imaging system and inverted wide field microscope Axio VertA1. The number of blastoids or cavitated structures were counted manually for each well. After 96 hours, a blastoid is defined based on the morphological parameters as described in previous sections. The fluorescent images and timelapse images were acquired using Olympus IX83 microscope with Yokogawa W1 spinning disk (Software: CellSense 2.3; camera: Hamamatsu Orca Flash 4.0) or Nikon Eclipse Ti E inverted microscope, equipped with a Yokogawa W1 spinning disc (Software: Visiview 4.5.0.7; camera: Andor Ixon Ultra 888 EMCCD). The confocal images were analyzed and display images were exported using FIJI 1.53k or Bitplane Imaris 9.7.0 softwares. For cell counting, Bitplane Imaris software was used. Cell count parameters were set for size and fluorescence strength of voxels and then overall cell count data was obtained for each image using Imaris's spot function. Note that large cavities in blastoids increase the depth of the imaging field causing poor signal from deeply located cells. Therefore, our counting data in FIG. 8H could be underrepresented values, particularly in the case of trophectoderm cells. The quantification of the percentage of blastoids forming the NR2F2 axis was done manually. […]

[1] = test system: Open Face Endometrial Layer (OFEL); experiment: In vitro implantation assay: attachment of blastoids or trophospheres onto OFELs; settings: for potential of endometrial cells to interact with human blastoids: EPC stimulation combined with the Wnt inhibitor
Method: (§1) Endometrial organoids were passaged as described in the previous section. The dissociated cells were resuspended in Matrigel supplemented with Y-27632 (10 μM), cell suspension was deposited in 48-well plates and were cultured in endometrial expansion medium for 2 days. The organoids were stimulated first with E2 (10 nM, Sigma-Aldrich, E2758) for 2 days, followed by the mixture of E2 (10 nM), P4 (1 μM, Sigma-Aldrich, P8783), and CAMP (250 μM, Biolog, B 007) with or without XAV939 (10 µM) (EPC or EPCX respectively) for 4 days. For OFELs culture, organoids were recovered from the matrigel droplets with ice-cold DMEM/F12 and mechanical pipetting. The organoids were dissociated using TrypLE and mechanically triturated to generate single cells and seeded at the density of 3 to 3.5×10^4 cells per well into a 96-well glass bottom plate (Cellvis, P96-1.5H-N) and cultured for 2-3 days with stimulation. For contraceptive treatment, levonorgestrel (LNG) (10 μM, Sigma-Aldrich, PHR1850) was added every day to the medium two days after hormonal stimulation and continued until the end of experiment.
Confluent OFELs were prepared for the implantation assay at least 2 hours prior to the deposition of blastoids, trophospheres, naive hPSCs or hTSCs aggregates by washing the OFEL two times with DMEM/F12 and adding IVC medium (Xiang, L. et al. Nature 577, 537-542 (2020)). Structures were then transferred onto the OFELs using a mouth pipette under an inverted microscope. After 24-48 hours, the medium was removed, the well was washed with PBS, fixed using 4% formaldehyde for 30 minutes at room temperature and subsequently processed for immunofluorescence staining. The percentage of attached structures was reported as the percentage of total transferred structures.

[2] = test system: endometrial cells (open-faced endometrial layer, OFEL); experiment: qRT-PCR of window-of-implantation markers in endometrial cells (OFELs); settings: for expression of the gene PAEP (marker of the WOI): endometrial cells, Wnt inhibition
Method: as §1
RNA was extracted using the RNeasy mini kit (Qiagen, 74106) and cDNA synthesis was performed using the Superscript III (Invitrogen, 18080093) enzyme. qPCR reactions were performed using GoTaq® qPCR Master Mix (Promega, A6001) on CFX384 Touch Real-Time PCR Detection System (Bio-rad). Quantification was performed using Microsoft Office Excel by applying the comparative Cycle threshold (Ct) method. Relative expression levels were normalized to GAPDH.

With “1-Oleoyl lysophosphatidic acid sodium salt [LPA]” the “effect on blastoid formation / yield of blastoids” value (naive hPSC aggregates; sodium salt) was “increases; also recorded: significantly improved efficiency; also recorded: enhanced blastoid formation” and the “morphology of hPSC aggregates upon stimulation” value (naive hPSC aggregates) was “leads to the transition from a solid aggregate of cells to a cystic structure including a single fluid-filled cavity”.

`Cc1ccc2nc(NC(=O)CSc3nc4c(c(=O)n3-c3ccccc3)SCC4)sc2c1` [IWP-2] was tested, and the “potential of endometrial cells to interact with human blastoids” value (from here on “potential of endometrial cells”) [1] was “increases the potential of endometrial cells to interact with human blastoids”.

For `Cn1ncnc2c(=O)n(C)c(=O)nc1-2` [PKF118-310], the “expression of the gene PAEP (marker of the WOI)” value [2] was “increase the expression of the gene PAEP”.

`Cc1ccc(/C=N/NC(=O)c2ccccc2Oc2ccccc2)o1` [PNU-74654] was tested, and the “potential of endometrial cells” value [1] was “increases the potential of endometrial cells to interact with human blastoids”.

With `NC(=O)c1ccc(-c2nc(-c3ccc4c(c3)OCO4)c(-c3ccccn3)[nH]2)cc1` [SB431542] the “blastoid formation with alternative TGF-b inhibitor” value (naive hPSC aggregates; 1 μM SB431542 for 4 days in combination with PLLY) was “also work”.

In the case of `O=C(NNc1nc2cc(F)ccc2n2cccc12)c1cnccn1` [SC144], the “attachment of trophospheres to stimulated endometrial cells (OFELs)” value ([1]; trophospheres formed using 3 μM SC144) is reported as “fail to attach and invade stimulated endometrial cells; also recorded: largely fail to attach and to invade the endometrial layer; also recorded: failed to attach to OFELs”, the “formation of blastoids versus trophospheres” value (naive hPSC aggregates) is reported as “a decrease in the formation of blastoids and an increase in the formation of trophospheres; also recorded: induces the formation of trophospheres with limited or no epiblast-like cells and hypoblast-like cells; also recorded: yielded trophospheres” and the “formation of blastoids versus trophospheres” value (naive hPSC aggregates; listed as SC-144) is reported as “induced the formation of mono-layer cavitated aggregate that does not form an inner cluster of Epi-/Hypo-like cells”. For the same compound, the “maturation of lineage specification of outer trophectoderm cells” value (naive hPSC aggregates; SC-144 treatment) was “compromised”.

`Oc1nc(-c2ccc(C(F)(F)F)cc2)nc2c1CSCC2` [XAV939] was tested, and the “potential of endometrial cells” value [1] was “increases the potential of endometrial cells to interact with human blastoids”, the “expression of PAEP, SPP1, LIF and DPP4 (RTqPCR)” value ([2]; endometrial cells cultured with XAV939) was “increases the expression of PAEP, SPP1, LIF and DPP4” and the “expression of the gene PAEP (marker of the WOI)” value [2] was “increase the expression of the gene PAEP”.

With `CN1C(=O)c2sccc2N(C)c2nc(Nc3ccc(S(N)(=O)=O)cc3)ncc21` [XMU-MP-1] the “attachment of trophospheres to stimulated endometrial cells (OFELs)” value ([1]; trophospheres formed using 2 μM XMU-MP-1) was “fail to attach and invade stimulated endometrial cells; also recorded: largely fail to attach and to invade the endometrial layer; also recorded: failed to attach to OFELs” and the formation of trophospheres (naive hPSC aggregates; 2 μM XMU-MP-1 in PALLY medium for 4 days (0 to 96 hours)) was “results in the formation of trophospheres; also recorded: induces the formation of trophospheres with limited or no epiblast-like cells and hypoblast-like cells; also recorded: yielded trophospheres”.

With “LIF: leukemia inhibitory factor, STAT3 agonist” the “blastoid formation efficiency versus LIF concentration” value (naive hPSC aggregates; dose dependent effect of LIF) was “blastoid formation efficiency increased with LIF concentration”.

For “N-[2-(phosphonooxy)ethyl]-9Z-octadecenamide [NAEPA]”, the “effect on blastoid formation / yield of blastoids” value (naive hPSC aggregates) was “increases; also recorded: enhanced blastoid formation” and the “morphology of hPSC aggregates upon stimulation” value (naive hPSC aggregates) was “leads to the transition from a solid aggregate of cells to a cystic structure including a single fluid-filled cavity”.

Verteporfin was tested, and the “formation of a cavity” value (naive hPSC aggregates; aggregate of hPSCs treated with Verteporfin, 1 μM) was “totally prevents the formation of a cavity” and the “effect on blastoid formation / yield of blastoids” value (naive hPSC aggregates) was “decreases; also recorded: prevented blastoid formation”.
